For orientation: ED50 means the dose at which the effect has come halfway, by size or by number of responders.

Here are results for 10 compounds from patent publication US4120857A, “Derivatives of 1,2,3,3-tetramethyl-2-azabicyclo[2.2.2]octan-5-endo-ol” (priority 1977, dated 1978).

The test system of experiment [1] is ventricular fibrillation by chloroform. Briefly: Mouse Chloroform Test (antiarrhythmic activity). In kind it is in vivo, female swiss albino mice. Particulars: mice; for ED50: Mus musculus, read-out: ED50, dose required to protect 50% of the test animals against development of ventricular fibrillation by chloroform. As to the method: 160:22-30 (1968). The test compounds were administered orally (p.o.) or intraperitoneally (i.p.) to female swiss albino mice weighing 16-24 grams. The arrhythmia induced by the chloroform was monitored by electrocardiogram recording and the normal and abnormal heart beats were tabulated.

Experiment [2] relates to corneal reflex. Briefly: Local Anesthetic Test (corneal reflex procedure). In kind it is in vivo, rabbits. Particulars: one drop into the conjunctival sac of one rabbit eye; isotonic saline. As to the method:
In this test a corneal reflex was elicited in rabbits by lightly touching the cornea with a stiff hair or bristle which normally would cause the rabbit to blink. The assay was carried out using initially a 2% solution or suspension of the test compound in isotonic saline. A cup or pouch was formed of the lower eyelid by pulling down the lower lid, and one drop of the test compound was instilled into the conjunctival sac of one eye. The other eye serves as a control. The corneal reflex was tested every fifteen minutes until the reflex returned to normal. If the reflex could be elicited 3 out of 5 times, then there was considered to be no local anesthetic effect. If the reflex was blocked and the compound was determined to be a local anesthetic, lower concentrations were tested to determine the minimum concentration needed for local anesthetic activity. Results for several of the compounds of the present invention are expressed in the table below as the MEC (minimum effective concentration) or minimum concentration of compound required for local anesthetic activity.

Experiment [3] deals with genetically hypertensive (spontaneously hypertensive) rats of the Okamato strain. Kind of experiment: Spontaneously Hypertensive Rat Test (antihypertensive activity). In kind it is in vivo. Particulars: po, compounds dosed orally, five animals per test dose, read-out: MED (minimum effective dose), dose required to give a minimum of a 20 mm Hg drop in blood pressure from control. An excerpt:
Clin. Med. 78:957-962 (1971). Five animals were used for each test dose. Results of the test are expressed in the table below as the MED (minimum effective dose) or dose required to give a minimum of a 20 mm Hg drop in blood pressure from control. | *compounds dosed orally

Read-outs that look alike come from different tables or passages of the source.

On to `CCCC(=O)O[C@@H]1C[C@@]2(C)CC[C@@H]1C(C)(C)N2C` (relative stereo) [Example 2D, 5-endo-Butyryloxy-1,2,3,3-tetramethyl-2-azabicyclo[2.2.2]-octane], for which, in experiment [1] (po), the 50% effective dose (ED50) worked out at 80 mg/kg.

Consider `CN1C(C)(C)[C@H]2CC[C@]1(C)C[C@H]2OC(=O)C(c1ccccc1)c1ccccc1` (relative stereo) [Example 2G, 5-endo-(Diphenylacetoxy)-1,2,3,3-tetramethyl-2-azabicyclo[2.2.2]-octane], for which the median effective dose (ED50) was determined as 12.5 mg/kg in experiment [1] (ip) and 20 mg/kg in experiment [1] (po). In addition, the “MEC (minimum effective concentration), minimum concentration of compound required for local anesthetic activity” value (shortened to “MEC (minimum effective concentration)”) in experiment [2] stood at 0.25%.

As for `CN1C(C)(C)[C@H]2CC[C@]1(C)C[C@H]2OCCCNC(=O)c1ccccc1` (relative stereo) [Example 3, 5-endo-(3-Benzoylaminopropyloxy)-1,2,3,3-tetramethyl-2-azabicyclo[2.2.2]octane], in experiment [1] (po), the ED50 is 10 mg/kg. Also, the “MEC (minimum effective concentration)” value in experiment [2] is reported as 0.5%.

As for `CN1C(C)(C)[C@H]2CC[C@]1(C)C[C@H]2OCCCNC(=O)C(c1ccccc1)c1ccccc1` (relative stereo) [Example 4, 5-endo-(3-Diphenylacetylaminopropyloxy)-1,2,3,3-tetramethyl-2-azabicyclo[2.2.2]octane], in experiment [1] (po), the median effective dose (ED50) was 10 mg/kg. The “MEC (minimum effective concentration)” value in experiment [2] is recorded as 0.5%.

For the compound `CC(=O)O[C@@H]1C[C@@]2(C)CC[C@@H]1C(C)(C)N2C` (relative stereo) [Example 1, 5-endo-Acetoxy-1,2,3,3-tetramethyl-2-azabicyclo[2.2.2]-octane], the minimal effective dose in experiment [3] turned out to be 12.5 mg/kg.

Take `CN1C2(C)CCC(C(OC(=O)c3ccccc3)C2)C1(C)C` (stereo not drawn) [Example 2B, 5-endo-Benzoyloxy-1,2,3,3-tetramethyl-2-azabicyclo(2.2.2]-octane]: in experiment [1] (i.p.), the “ED50, dose required to protect 50% of the test animals against development of ventricular fibrillation by chloroform” value amounted to 50 mg/kg.

As to `CN1C(C)(C)[C@H]2CC[C@]1(C)C[C@H]2OC(=O)C1CC1` (relative stereo) [Example 2A, 5-endo-Cyclopropylcarbonyloxy-1,2,3,3-tetramethyl-2-azabicyclo-[2.2.2]octane], the minimal effective dose in experiment [3] came to 25 mg/kg.

Take `CN1C(C)(C)[C@H]2CC[C@]1(C)C[C@H]2OC(=O)Nc1ccccc1` (relative stereo) [Example 5, 5-endo-Phenylcarbamoyloxy-1,2,3,3-tetramethyl-2-azabicyclo[2.2.2]octane]: the 50% effective dose (ED50) in experiment [1] (po) was found to be 44 mg/kg.

With `COc1cc(C(=O)O[C@@H]2C[C@@]3(C)CC[C@@H]2C(C)(C)N3C)cc(OC)c1OC` (relative stereo) [Example 2C, 5-endo-(3,4,5-Trimethoxybenzoyl-oxy)-1,2,3,3-tetramethyl-2-azabicyclo[2.2.2]octane], the ED50 in experiment [1] (ip) worked out at 50 mg/kg.

Take `CN1C(C)(C)[C@H]2CC[C@]1(C)C[C@H]2OC(=O)c1ccc(N)cc1` (relative stereo) [Example 2F, 5-endo-(p-Aminobenzoyloxy)-1,2,3,3-tetramethyl-2-azabicyclo-[2.2.2]octane]: the 50% effective dose (ED50) in experiment [1] (ip) stood at 6.3 mg/kg; in experiment [1] (po), 25 mg/kg. Moreover, the “MEC (minimum effective concentration)” value in experiment [2] is given as 2.0%.
